Paper PMC11120720, “Linking Variability in Phytochemical Composition with Safety Profile of Thymus carnosus Boiss. Extracts: Effect of Major Compounds and Evaluation of Markers of Oxidative Stress and Cell Death” (International Journal of Molecular Sciences, 2024)
Where two headings read alike, the source gives them in different places.

Tests used:
[1] = tested on: normal and tumoral human nasopharyngeal cells; parameters: method as in PMID 33277860; details: 24 h; cited from earlier work
Caco-2 cells [2] = test: Alamar Blue cell viability assay, Caco-2; assay type: cell-based, human; details: for IC50: Homo sapiens
Procedure: (§1) The safety profile of T. carnosus AD and HE extracts was evaluated in Caco-2 and HepG2 cells using an Alamar Blue® (Invitrogen; Alfagene, Lisboa, Portugal) assay. An initial screening was performed for all extracts at concentrations ranging between 100 and 1000 µg/mL. Due to the higher toxicity of the HE extracts, which was previously described for various extracts of Thymus species using the same extraction methods (e.g., T. mastichina and Thymus zygis), a different set of concentrations was used for the HE extracts (between 100 and 300 µg/mL for Caco-2 cells and 50 and 150 µg/mL for HepG2 cells). Figure 1 presents the data related to the cell viability assays in Caco-2 (panels A–E) and HepG2 cells (panels F–J) exposed to T. carnosus extracts, as indicated.
(§2) The safety profile of T. carnosus extracts was assessed in Caco-2 and HepG2 cells. Caco-2 (human colon adenocarcinoma cell line) were obtained from CLS (Cell Lines Service, Eppelheim, Germany), and HepG2 (human hepatocellular carcinoma cell line) were obtained from ATCC (American Type Culture Collection, Manassas, VA, USA).
(§3) Cell culture maintenance, handling, subculturing, and seeding were performed as described by Silva et al., 2020 [5], and cell viability was assessed using an Alamar Blue® assay, as described by Andreani et al., 2014 [64]. Concentrations ranged between 100 and 1000 µg/mL for AD extracts in both cell lines and 100 to 300 µg/mL or 50 to 150 µg/mL for HE extracts in Caco-2 and HepG2 cells, respectively. The effect of individual compounds on cell viability was assessed for concentrations ranging from 50 to 300 µM. All test solutions were prepared by diluting the samples in FBS-free culture media from the stock solutions described in Section 3.2, just prior to being used.
(§4) The results are presented as mean ± SD of at least three independent assays. The calculation of IC50 values was performed as described by Silva et al., 2020 [5]. Data analysis, graphical design, and statistical analysis were performed using Microsoft Office Excel (Professional Plus 2019; Microsoft Corporation, Washington, DC, USA) and GraphPad Prism (Version 8; GraphPad Software Inc., San Diego, CA, USA). Flow cytometry data analysis was performed using BD Accuri™ C6 Software, version 1.0.264.21 (Becton Dickinson, San Diego, CA, USA).

[3] = Alamar Blue cell viability assay, Caco-2; assay type: cell-based, human; details: human, Caco-2
Procedure: as §1, §2, §3, §4

HepG2 cells [4] = test: Annexin V-FITC/PI apoptosis/necrosis, HepG2; assay type: cell-based, human; details: compound 50 µM, 24 h
Procedure: (§5) The cells were then equally divided for each assay.
(§6) For the assessment of apoptotic/necrotic cell death, an Annexin V-FITC (Thermo Fisher Scientific, Waltham, MA, USA) and propidium iodide (PI; Merck, Darmstadt, Germany) double-staining assay was used to evaluate the apoptotic/necrotic cell death induced by T. carnosus extracts and by individual phytochemicals, as described previously. Briefly, after detachment and washing, the supernatant was discarded, and 200 µL of Annexin V-FITC (1:200 dilution in Annexin-binding buffer [10 mM HEPES sodium salt, 150 mM NaCl, 5 mM KCl, 5 mM MgCl2, and 1.8 mM CaCl2; pH = 7.4]) was added. Cells were incubated for 20 min (room temperature, in the dark). After incubation, 5 µL of propidium iodide (PI; 50 µg/mL) was added, the cells were incubated for 5 min on ice (in the dark), and the data were acquired.

Caco-2 cells [5] = test: Annexin V-FITC/PI apoptosis/necrosis, Caco-2; assay type: cell-based; details: compound 50 µM, 24 h
Procedure: as §5, §6

HepG2 cells [6] = test: Intracellular ROS (DCFDA, flow cytometry), HepG2; assay type: cell-based, human; details: compound 50 µM, 24 h
Procedure: as §5
(§7) Intracellular ROS level assessment was performed as described by Silva et al., 2022 [65], using dichlorodihydrofluorescein diacetate (DCFDA). Cells obtained in the previous step were centrifuged, the supernatant discarded, and 200 µL of DCFDA (10 µM in FBS-free DMEM) was added. Cells were incubated for 45 min (37 °C, in the dark), washed to remove excess probe, and resuspended in PBS for data acquisition.

[7] = tested on: human lung cancer (A549) cells; details: cited from earlier work
HepG2 cells [8] = test: Mitochondrial membrane potential (JC-1, flow cytometry), HepG2; assay type: cell-based, human; details: compound 50 µM, 24 h
Procedure: (§8) Flow cytometry was used to analyze the effect of T. carnosus extracts on intracellular ROS, modulation of mitochondrial membrane potential (MMP), cell cycle arrest, and apoptotic/necrotic cell death induction.
(§9) Both one- and two-color assays were performed using a BD Accuri™ C6 cytometer (Becton Dickinson, Franklin Lakes, NJ, USA), and 10,000 gated events were collected from each sample [1]. For flow cytometry assays, cells were handled as described previously but seeded at a density 5 × 10^4 cells/mL (750 μL/well) in 12-well plates. Caco-2 and HepG2 cells were incubated for 24 h with the extracts (100 µg/mL) or individual phytochemicals (50 µM) diluted in FBS-free culture media h. After incubation, test solutions were removed; the cells were washed with PBS and detached from the plates using trypsin-EDTA. Once transferred to centrifuge tubes, the cells were centrifuged (bench micro-centrifuge; 3000 rpm; 3 min), the supernatant was discarded, and a new wash cycle was performed. The cells were then equally divided for each assay. A negative control was used in all assays consisting of nonexposed cells incubated only with culture media.
(§10) Mitochondrial membrane potential (MMP) was evaluated using 5,5″,6,6″-tetrachloro-1,1″,3,3″-tetraethylbenzimidazolylcarbocyanineiodide (JC-1). Cells were processed as described for DCFDA but incubated with 200 µL of JC-1 (2 µM, in FBS-free DMEM) for 20 min (37 °C, in the dark).

Caco-2 cells [9] = test: Intracellular ROS (DCFDA, flow cytometry), Caco-2; assay type: cell-based; details: compound 50 µM, 24 h
Procedure: as §5, §7

HepG2 cells [10] = test: Alamar Blue cell viability assay, HepG2; assay type: cell-based, human; details: for IC50: Homo sapiens
Procedure: as §1, §2, §3, §4

[11] = Alamar Blue cell viability assay, HepG2; assay type: cell-based, human; details: human, HepG2 cells
Procedure: as §1, §2, §3, §4

HepG2 cells [12] = test: Cell cycle arrest (PI, flow cytometry), HepG2; assay type: cell-based, human; details: compound 50 µM, 24 h
Procedure: as §5
(§11) Cell cycle arrest assessment was performed as described in [1]. Cells were processed as described above until cell detachment and centrifuged, after which the second washing step was performed with ice-cold PBS (0 °C). After centrifugation, the supernatant was discarded, and cells were fixed with 500 µL of ethanol:PBS solution (70:30, % v/v, previously cooled at −20 °C) for at least 4 h at −20 °C. After fixation, two washing cycles were performed: the first with ice-cold PBS (0 °C) and the second with room-temperature PBS, followed by the addition of 200 µL of a PBS solution containing PI (50 µg/mL), RNAse A (50 µg/mL), and Triton X-100 (0.1%). Cells were incubated for 30 min at 37 °C, and then cells were washed once with PBS to remove the staining solution. After resuspension in PBS, the data were acquired.

HepG2 cells [13] = details: 24 h of exposure; cited from earlier work
Caco-2 cells [14] = details: cited from earlier work
Caco-2 cells [15] = test: Cell cycle arrest (PI, flow cytometry), Caco-2; assay type: cell-based; details: compound 50 µM, 24 h
Procedure: as §5, §11

[16] = tested on: human prostate cancer cells; parameters: method as in PMID 29898731; details: 40 µM; cited from earlier work
[17] = tested on: murine melanoma cells (B16-BL6 cells); parameters: method as in PMID 15538571; details: cited from earlier work
[18] = tested on: NPC-39 nasopharyngeal carcinoma cells; parameters: method as in PMID 31981746; details: 50 µM; cited from earlier work
[19] = tested on: human prostate carcinoma (DU 145) cells; details: cited from earlier work
[20] = tested on: HONE-2 nasopharyngeal carcinoma cells; parameters: method as in PMID 31981746; details: 50 µM; cited from earlier work
[21] = tested on: DLD-1, Dukes-type C colorectal adenocarcinoma; details: cited from earlier work
[22] = tested on: human lung adenocarcinoma (H1975) cells; details: cited from earlier work
[23] = tested on: HCT-116 human colorectal carcinoma cells; details: cited from earlier work
[24] = tested on: human small cell lung cancer cells (SCLCs); parameters: method as in doi:10.4314/tjpr.v14i8.11; details: 50 and 100 µM; cited from earlier work
HeLa cells = details: cited from earlier work
Caco-2 cells [25] = details: compound 50 µM, 24 h
Procedure: as §8, §9, §10

[26] = Caco-2, 24 h exposure, read-out: IC50 (µM) - Caco-2 cells: 24 h
[27] = Caco-2, 48 h exposure, read-out: IC50 (µM) - Caco-2 cells: 48 h
[28] = HepG2, 24 h exposure, read-out: IC50 (µM) - HepG2 cells: 24 h
[29] = HepG2, 48 h exposure, read-out: IC50 (µM) - HepG2 cells: 48 h

## O=C1C[C@@H](c2ccc(O)c(O)c2)Oc2cc(O)cc(O)c21 [Eriodictyol, eriodictyol]
[1]
  concentrations inducing cytotoxicity, nasopharyngeal cells: ≥ 5 µM
Caco-2 cells [2]; 48 h, concentration not given
  reduction of Caco-2 cell viability: ~ 81%
Caco-2 cells [2]; Caco-2, 24 h, read-out: IC50 (µM) - Caco-2 cells: 24 h
  IC50: 245 ± 13.7 µM
Caco-2 cells [2]; Caco-2, 48 h, read-out: IC50 (µM) - Caco-2 cells: 48 h
  IC50: 82.5 µM
[3]; 48 h, concentration not given, read-out: cell viability, Caco-2 (% of control)
  viability at 48 h: ~19%
HepG2 cells [4]
  cell death induction, HepG2: induced apoptosis and necrosis
Caco-2 cells [5]
  cell death induction, Caco-2: induced apoptosis and necrosis
HepG2 cells [6]
  change in intracellular ROS, HepG2: significant (p < 0.05) increase in intracellular HepG2 ROS levels
[7]
  cell cycle effect, A549: cell cycle arrest in the G2/M phase
  concentrations reducing the MMP in A549 cells: ≥ 25 µM
HepG2 cells [8]
  MMP modulation, HepG2: hyperpolarization of the mitochondrial membrane
Caco-2 cells [9]
  change in intracellular ROS, Caco-2: neither RA nor eriodictyol induced ROS increases
HepG2 cells [10]; HepG2, 24 h, read-out: IC50 (µM) - HepG2 cells: 24 h
  IC50: > 300 µM
HepG2 cells [10]; HepG2, 48 h, read-out: IC50 (µM) - HepG2 cells: 48 h
  IC50: 231 ± 23.2 µM
[11]; 24 h, concentration not given
  viability at 24 h: 56.9%
[11]; concentration not given
  viability at 48 h: 43.2%

## O=c1c(O)c(-c2ccc(O)c(O)c2)oc2cc(O)cc(O)c12 [Quercetin, quercetin]
Caco-2 cells [2]; 24 h
  concentrations giving significant decrease in Caco-2 cell viability: ≥ 75 µM
Caco-2 cells [2]; [26]
  IC50: > 300 µM
Caco-2 cells [2]; [27]
  IC50: 109 µM
[3]; 50 µM, 48 h, Figure 2E
  viability at 48 h, 50 µM: 77.6%
[3]; 50-100 µM, 48 h, read-out: cell viability, Caco-2
  viability at 48 h: ≥ 68%
[3]; concentrations up to 200 µM, 24 h, Figure 2E
  viability at 24 h: ~90%
HepG2 cells [4]
  % of healthy HepG2 cells: ~ 76%
  cell death induction, HepG2: shift in the cell population to both early and late apoptosis
HepG2 cells [12]
  cell cycle effect, HepG2: cell cycle arrest was observed in the G0/G1 phase
Caco-2 cells [5]
  % of healthy Caco-2 cells: ~ 86%
  cell death induction, Caco-2: shift in the cell distribution into late apoptosis
HepG2 cells [6]
  change in intracellular ROS, HepG2: significant increase in ROS
HepG2 cells [13]
  concentrations reducing HepG2 cell viability: ≥ 33 µM
Caco-2 cells [14]; 50 µM, 48 h
  cell viability, Caco-2: 75–80%
Caco-2 cells [14]; 100 µM, 24 h
  effect on Caco-2 cell viability: no changes in cell viability
Caco-2 cells [15]
  cell cycle effect, Caco-2: cell cycle arrest in the S and G2/M phases
[16]
  MMP modulation, prostate cancer cells: loss of MMP
HepG2 cells [8]
  MMP modulation, HepG2: did not induce variations in the MMP
HepG2 cells [10]; 50 µM = lowest concentration tested, Figure 2M
  concentrations reducing HepG2 cell viability: ≥ 50 µM
HepG2 cells [10]; [28]
  IC50: 141 µM
HepG2 cells [10]; [29]
  IC50: 10.1 µM
[11]; 50-100 µM
  viability at 48 h: ≤ 20%
[17]
  MMP modulation, B16-BL6: loss of MMP

## O=C(/C=C/c1ccc(O)c(O)c1/C=C/c1ccc(O)c(O)c1)O[C@H](Cc1ccc(O)c(O)c1)C(=O)O [Salvianolic acid A, salvianolic acid A]
[18]
  effect on cell viability, NPC-39: no reduction in cell viability
[19]
  IC50: ≤ 30 µM
Caco-2 cells [2]; [26]
  IC50: > 300 µM
Caco-2 cells [2]; [27]
  IC50: > 300 µM
[3]
  viability at 48 h, 300 µM: 54.4%
[20]
  effect on cell viability, HONE-2: no reduction in cell viability
[21]
  concentrations with no or low cytotoxicity, DLD-1: up to 50 µM
[22]
  IC50: ≤ 30 µM
[23]
  concentrations with no or low cytotoxicity, HCT-116: up to 50 µM
[24]
  MMP modulation, SCLC cells: loss of MMP
HeLa cells
  IC50: ≤ 30 µM
[7]
  IC50: ≤ 30 µM
Caco-2 cells [25]
  MMP modulation, Caco-2: significant loss of MMP
HepG2 cells [10]; [28]
  IC50: > 300 µM
HepG2 cells [10]; [29]
  IC50: > 300 µM
